Data as given in patent US20230123334A1, “AMINO LIPID COMPOUND, PREPARATION METHOD THEREFOR, AND APPLICATION THEREOF” (SHENZHEN SHENXIN BIOTECHNOLOGY CO., LTD., priority 2020, published 2023).

Test system: HEK293 cells
Test: Preliminary screening as mRNA vectors, EGFP mRNA transfection of HEK293 cells
Type: cell-based
Conditions: EGFP mRNA 50 ng per well, 96-well plates; percentage of GFP fluorescent cells relative to total number of cells (Hoechst)
How it was run: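 Screening format: EGFP mRNA transfection (50 ng/well) into HEK293 in 10% FBS-supplemented DMEM. Percent green fluorescent cells, normalised to Hoechst nuclear count, gave the value; Lipofectamine2000 was the reference transfectant.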

| Compound | Absolute mRNA transfection efficiency in HEK293 cells |
| --- | --- |
| CCCCCCCCCCSc1nc(NCCCCCCC)nc(NCCN(CC)CC)n1 [Compound D7S10N7] | 1.2% |
| CCCCCCCCCCCCCCCCNc1nc(NCCN(C)C)nc(SCCCCCCCCCCCC)n1 [Compound D1S12N16] | 0.0% |
| CCCCCCCCCCCNc1nc(NCCN(CC)CC)nc(SCCCCCCC)n1 [Compound D7S7N11] | 11.1% |
| CCCCCCCCCCCCCCSc1nc(NCCCCCCCCCCCCC)nc(NCCN(C)C)n1 [Compound D1S14N13] | 6.0% |
| CCCCCCCCCCCCCCCCCCSc1nc(NCCCCCCCC)nc(NCCN2CCCC2)n1 [Compound D3S18N8] | 93.3% |
| CCCCCCCCCCCCCCCCSc1nc(NCCCN2CCN(C)CC2)nc(N(CCCCCCCCCCCC)CCCCCCCCCCCC)n1 [D9S16^2N12] | 2.7% |
| CCCCCCCSc1nc(NCCCN(C)C)nc(SCCCCCCC)n1 [Compound D6S7S7] | 29.3% |
| CCCCCCCCCCCCCCCCCCSc1nc(NCCCCCCCCCCCCCCC)nc(NCCN2CCOCC2)n1 [Compound D2S18N15] | 0.0% |
| CCCCCCCCCCCCCCCNc1nc(NCCCN2CCN(C)CC2)nc(SCCCCCCCC)n1 [Compound D9S8N15] | 37.8% |
| CCCCCCCCCCCCCCCNc1nc(NCCN2CCOCC2)nc(SCCCCCCCCCCCCCC)n1 [Compound D2S14N15] | 0.0% |
| CCCCCCCCCCCCCCCNc1nc(NCCCN(C)C)nc(SCCCCCCC)n1 [Compound D6S7N15] | 37.9% |
| CCCCCCCCCSc1nc(NCCCCCCC)nc(NCCN2CCCCC2)n1 [Compound D4S9N7] | 3.0% |
| CCCCCCCCCCCCCCCSc1nc(NCCCN(C)C)nc(SCCCCCC)n1 [Compound D6S6S15] | 47.0% |
| CCCCCCCCCCCCCCSc1nc(NCCCCCC)nc(NCCN2CCN(C)CC2)n1 [Compound D5S14N6] | 48.0% |
| CCCCCCCCCCCCCCCSc1nc(NCCN2CCN(C)CC2)nc(SCCCCCCC)n1 [Compound D5S7S15] | 58.7% |
| CCCCCCCCCSc1nc(NCCCN(C)C)nc(SCCCCCCC)n1 [Compound D6S7S9] | 14.3% |
| CCCCCCCCCCCCCCCSc1nc(NCCCCCC)nc(NCCN(C)C)n1 [Compound D1S15N6] | 37.7% |
| CCCCCCCCCCCCNc1nc(NCC2CCN(C)CC2)nc(SCCCCCCCCCCC)n1 [Compound D10S11N12] | 24.7% |
| CCCCCCSc1nc(NCCN2CCCC2)nc(SCCCCCC)n1 [Compound D3S6S6] | 1.9% |
| CCCCCCCCCCCCCCCCCCSc1nc(NCCCCCCCCCCCC)nc(NCCCN2CCN(C)CC2)n1 [Compound D9S18N12] | 1.7% |
| CCCCCCCCCCCCCCCCCCSc1nc(NCCCN2CCN(C)CC2)nc(SCCCCCCC)n1 [Compound D9S7S18] | 34.3% |
| CCCCCCCCCCCCCCCCCCNc1nc(NCCN2CCOCC2)nc(SCCCCCCCCCCCCCCC)n1 [Compound D2S15N18] | 0.3% |

| Compound | Absolute mRNA transfection efficiency in HEK293 cells |
| --- | --- |
| CCCCCCCCCNc1nc(NCCN(C)C)nc(SCCCCCC)n1 [Compound D1S6N9] | 1.8% |
| CCCCCCCCCCCCCCCNc1nc(NCCN2CCCCC2)nc(SCCCCCC)n1 [Compound D4S6N15] | 0.4% |
| CCCCCCCCCCCSc1nc(NCCCCCCCC)nc(NCCN2CCCCC2)n1 [Compound D4S11N8] | 4.3% |
| CCCCCCCCSc1nc(NCCN2CCCC2)nc(SCCCCCCC)n1 [Compound D3S7S8] | 2.7% |
| CCCCCCCCCCCCCCCCCCNc1nc(NCCN(C)C)nc(SCCCCCCCCC)n1 [Compound D1S9N18] | 47.6% |
| CCCCCCCCCCCCCCCCSc1nc(NCCCCCCCCCCCCC)nc(NCCCN2CCOCC2)n1 [Compound D8S16N13] | 0.1% |
| CCCCCCCCSc1nc(NCCN(CC)CC)nc(SCCCCCC)n1 [Compound D7S6S8] | 18.9% |
| CCCCCCCCCCCCCCCCSc1nc(NCCCCCCCCCCCCC)nc(NCCN2CCOCC2)n1 [Compound D2S16N13] | 0.0% |
| CCCCCCCCCCCCCCSc1nc(NCCCCCC)nc(NCCN(CC)CC)n1 [Compound D7S14N6] | 15.7% |
| CCCCCCCCCCCCNc1nc(NCC2CCN(C)CC2)nc(SCCCCCCCCC)n1 [Compound D10S9N12] | 57.0% |
| CCCCCCCCCCCCNc1nc(NCCN(C)C)nc(SCCCCCCCCC)n1 [Compound D1S9N12] | 30.2% |
| CCCCCCCCCCCCCCCCSc1nc(NCCCCCC)nc(NCCN(CC)CC)n1 [Compound D7S16N6] | 16.5% |
| CCCCCCCCCCCCCCCCSc1nc(NCCCN(C)C)nc(SCCCCCCC)n1 [Compound D6S7S16] | 90.8% |
| CCCCCCCCCCCCCCCSc1nc(NCCCCCC)nc(NCCCN2CCN(C)CC2)n1 [Compound D9S15N6] | 30.7% |
| CCCCCCCCCCCCCCCCSc1nc(NCCN2CCOCC2)nc(N(CCCCCCCCCCCC)CCCCCCCCCCCC)n1 [D2S16^2N12] | 0.7% |
| CCCCCCCCCCCCCCCCCCNc1nc(NCCN2CCCCC2)nc(SCCCCCCCCCCCCCCCC)n1 [Compound D4S16N18] | 6.3% |
| CCCCCCCCCCCCCCCCSc1nc(NCCCCCCCC)nc(NCC2CCN(C)CC2)n1 [Compound D10S16N8] | 70.4% |
| CCCCCCCCCCCCCNc1nc(NCCCN2CCOCC2)nc(SCCCCCCCCCCCC)n1 [Compound D8S12N13] | 0.3% |
| CCCCCCCCCCCCSc1nc(NCCCCCCC)nc(NCCCN2CCN(C)CC2)n1 [Compound D9S12N7] | 0.6% |
| CCCCCCCCCCCCSc1nc(NCCCCCCCC)nc(NCCCN2CCN(C)CC2)n1 [Compound D9S12N8] | 20.1% |
| CCCCCCCCCCCCCCCCSc1nc(NCCN2CCCCC2)nc(N(CCCCCCCCCCCC)CCCCCCCCCCCC)n1 [D4S16^2N12] | 0.3% |
| CCCCCCCCCCCCCCCCCCSc1nc(NCCCCCCCCC)nc(NCCN2CCN(C)CC2)n1 [Compound D5S18N9] | 11.6% |

| Compound | Absolute mRNA transfection efficiency in HEK293 cells |
| --- | --- |
| CCCCCCCCCCCCCCCNc1nc(NCCCN2CCOCC2)nc(SCCCCCCCCCCCCCCC)n1 [Compound D8S15N15] | 0.1% |
| CCCCCCCCCCCCCCCCSc1nc(NCCCCCC)nc(NCCCN(C)C)n1 [Compound D6S16N6] | 96.4% |
| CCCCCCCCCCCCSc1nc(NCCN2CCCCC2)nc(N(CCCCCCCCCCCC)CCCCCCCCCCCC)n1 [D4S12^2N12] | 0.5% |
| CCCCCCCCCCCCCCCNc1nc(NCCN2CCCC2)nc(SCCCCCCCCCC)n1 [Compound D3S10N15] | 57.6% |
| CCCCCCCCCCCCCCCCCCNc1nc(NCCN(CC)CC)nc(SCCCCCCCCCCCCCC)n1 [Compound D7S14N18] | 0.4% |
| CCCCCCCCNc1nc(NCCN2CCCC2)nc(SCCCCCCC)n1 [Compound D3S7N8] | 1.3% |
| CCCCCCCCCCCCCCCCCCSc1nc(NCCCCCCCC)nc(NCCN2CCN(C)CC2)n1 [Compound D5S18N8] | 33.4% |
| CCCCCCCCCCCSc1nc(NCCCCCCCCC)nc(NCCN(C)C)n1 [Compound D1S11N9] | 14.7% |
| CCCCCCCCCCCCCCSc1nc(NCCCN(C)C)nc(SCCCCCC)n1 [Compound D6S6S14] | 62.8% |
| CCCCCCCCCCCCCCCCCCSc1nc(NCCCCCCCCCCCC)nc(NCC2CCN(C)CC2)n1 [Compound D10S18N12] | 2.0% |
| CCCCCCCCCCCCCCCCNc1nc(NCC2CCN(C)CC2)nc(SCCCCCCCCCCCCCC)n1 [Compound D10S14N16] | 3.0% |
| CCCCCCCCCCCCSc1nc(NCCCN2CCOCC2)nc(N(CCCCCCCCCCCC)CCCCCCCCCCCC)n1 [D8S12^2N12] | 3.4% |
| CCCCCCCCCCCNc1nc(NCCN2CCCCC2)nc(SCCCCCC)n1 [Compound D4S6N11] | 0.9% |
| CCCCCCCNc1nc(NCCCN2CCOCC2)nc(SCCCCCCC)n1 [Compound D8S7N7] | 1.4% |
| CCCCCCCNc1nc(NCCCN(C)C)nc(SCCCCCCC)n1 [Compound D6S7N7] | 1.8% |
| CCCCCCCCCCCCCCSc1nc(NCCCCCCCC)nc(NCCN2CCCCC2)n1 [Compound D4S14N8] | 3.2% |
| CCCCCCCCCCCCCNc1nc(NCCN2CCOCC2)nc(SCCCCCCCCC)n1 [Compound D2S9N13] | 12.3% |
| CCCCCCCCCCCNc1nc(NCCN(CC)CC)nc(SCCCCCCCCCC)n1 [Compound D7S10N11] | 3.1% |
| CCCCCCCCCCCCCCCCCCNc1nc(NCCN2CCN(C)CC2)nc(SCCCCCC)n1 [Compound D5S6N18] | 16.6% |
| CCCCCCCCCCCCCCCNc1nc(NCCN2CCCCC2)nc(SCCCCCCCC)n1 [Compound D4S8N15] | 2.6% |
| CCCCCCCCCCCNc1nc(NCCN(CC)CC)nc(SCCCCCCCCC)n1 [Compound D7S9N11] | 36.8% |
| CCCCCCCCCCSc1nc(NCCCCCCCCC)nc(NCCN2CCOCC2)n1 [Compound D2S10N9] | 0.5% |
